Results from article PMC2653189 (PLoS ONE, 2009).

What was measured:
[1] = system: IL-6-mediated Stat3 nuclear translocation (GFP-Stat3α); assay: HTFM nuclear translocation assay in MEF/GFP-Stat3α cells; type: cell-based, murine; details: Mus musculus, compound 1 hour, then IL-6 200 ng/ml and IL-6sR 250 ng/ml 30 min, read-out: HTFM IC50, inhibition of IL-6-mediated Stat3 nuclear translocation
Experimental: Confocal and high-throughput fluorescence microscopy (HTFM) of MEF/GFP-Stat3α cells were performed as described. Briefly, for confocal fluorescence microscopy, cells were grown in 6-well plates containing a cover slip. For HTFM, cells were seeded into 96-well CC3 plates at a density of 5,000 cells/well using an automated plating system. Cells were cultured under standard conditions until 85–90% confluent. Cells were pre-treated with compound for 1 hour at 37°C then stimulated with IL-6 (200 ng/ml) and IL-6sR (250 ng/ml) for 30 minutes to provide optimal Stat3 activation and nuclear translocation in these cells, as described. Cells were fixed with 4% formaldehyde in PEM Buffer (80 mM Potassium PIPES, pH 6.8, 5 mM EGTA pH 7.0, 2 mM MgCl2) for 30 minutes at 4°C, quenched in 1 mg/ml of NaBH4 (Sigma) in PEM buffer and counterstained for 1 min in 4,6-diamidino-2-phenylindole (DAPI; Sigma; 1 mg/ml) in PEM buffer. Cover slips were examined by confocal fluorescent microscopy. Plates were analyzed by automated HTFM using the Cell Lab IC Image Cytometer (IC100) platform and Cytoshop Version 2.1 analysis software (Beckman Coulter). Nuclear translocation is quantified by using the fraction localized in the nucleus (FLIN) measurement. FLIN values were normalized by subtracting the FLIN for unstimulated cells then dividing this difference by the maximum difference (delta, Δ) in FLIN (FLIN in cells stimulated with IL-6/sIL-6R in the absence of compound minus FLIN of unstimulated cells). This ratio was multiplied by 100 to obtain the percentage of maximum difference in FLIN and was plotted, where indicated, as a function of the log compound concentration. The best-fitting curve and IC50 value were determined using 4-Parameter Logistic Model/Dose Response/XLfit 4.2, IDBS software.
Figure 4 Inhibition of cytoplasmic-to-nuclear translocation of Stat3 assessed by confocal and high-throughput fluorescence microscopy (HTFM). […] Coverslips were examined by confocal fluorescent microscopy using filters to detect GFP (column one), DAPI (column two) or both (merge; column three). In panel B, MEF-GFP-Stat3 cells were grown in 96-well plates with optical glass bottoms and pre-treated with the indicated compound at the indicated concentrations in quadruplicate for 1 hour then stimulated with IL-6 (200 ng/ml) and IL-6sR (250 ng/ml) for 30 minutes. Cells were fixed and the plates were examined by high-throughput microscopy to determine the fluorescence intensity in the nucleus (FLIN). The percent of maximum change (delta, Δ) in FLIN was calculated as described in the Methods and plotted as a function of the log of the compound concentration. […] Best-fit curves were determined using 4-Parameter Logistic Model/Dose Response/XLfit 4.2, IDBS software and were used to calculate the IC50 values (Table 2).

[2] = system: MCF7; assay: Breast cancer cell line apoptosis assay (nucleosome ELISA); type: cell-based; details: Homo sapiens, 24 hr, read-out: EC50 apoptosis induction
Experimental: (§1) Human breast carcinoma cell lines MDA-MB-468, MDA-MB-231, MBA-MD-435 and MCF7 were kindly provided by Dr. Powel H. Brown (Breast Cancer Center, Baylor College of Medicine). Breast cancer cell line, MDA-MB-453 was kindly provided by Dr. Shou Jiang (Breast Cancer Center, Baylor College of Medicine). All cell lines were grown in DMEM medium supplemented with 10% fetal bovine serum (FBS), 25,000 units penicillin G, 25,000 µg streptomycin, and 131.4 mg L-Glutamine and cultured in the incubator under the condition of 95% air, 5% CO2 at 37°C [33]. Cells were seeded at 2,500 cells/cm^2 into 12-well plates. At 80% confluency, cells were washed with PBS and supplemented with fresh medium containing compound or the topoisomerase I-inhibitor, camptothecin, at 0, 0.1, 0.3, 1, 3, 10, 30, 100, 300 µM. At 24 hours, treatment was terminated by removing the medium from each well. Cells were lysed with cell lysis buffer (600 µl for 30 minutes at 25°C). Cell lysate (200 µl) was centrifuged at 200 g for 10 minutes and 20 µl of each supernatant was assayed for nucleosomes using the Cell Death Detection ELISA (Roche Applied Science) as described by the manufacturer. The percent maximum nucleosome level was calculated by dividing the nucleosome level by the maximum nucleosome level achieved in the assay and multiplying by 100. This value was plotted as a function of the log compound concentration and the best-fitting curve and EC50 value determined using 4-Parameter Logistic Model/Dose Response/XLfit 4.2, IDBS software.
(§2) Figure 5 Apoptosis induction of breast cancer cell lines by compounds; selective apoptosis of cell lines that are Stat3 dependent. MDA-MB-468 (panel A), MDA-MB-231 (panel B), MDA-MB-435 (panel C), MCF7 (panel D) and MDA-MB-453 (panel E) were seeded in 12-well plates, grown overnight then treated with the indicated compound for 24 hr. Cells were centrifuged and the supernatants assayed for nucleosome levels by ELISA. The percent maximum nucleosome level was calculated (nucleosome level ÷ maximum nucleosome level achieved in the assay ×100) and plotted as a function of the log compound concentration. The best-fitting curve was determined using 4-ParameterLogistic Model/Dose Response One Site/XLfit 4.2, IDBS software and was used to determine the EC50 value (Table 3).

[3] = system: MDA-MB-453; assay: as above; type: cell-based; details: Homo sapiens, 24 hr, read-out: EC50 apoptosis induction
Experimental: as §1, §2

[4] = system: MDA-MB-435; assay: as above; type: cell-based; details: Homo sapiens, 24 hr, read-out: EC50 apoptosis induction
Experimental: as §1, §2

[5] = system: MDA-MB-231; assay: as above; type: cell-based; details: Homo sapiens, 24 hr, read-out: EC50 apoptosis induction
Experimental: as §1, §2

[6] = system: MDA-MB-468; assay: as above; type: cell-based; details: Homo sapiens, 24 hr, read-out: EC50 apoptosis induction
Experimental: as §1, §2

In the case of O=C(O)c1ccc(C=CC(=O)c2ccc3c(c2)OCCO3)cc1 [Cpd3, 4-[3-(2,3-dihydro-1,4-benzodioxin-6-yl)-3-oxo-1-propen-1-yl]benzoic acid], the IC50 [1] is reported as 131 µM, the EC50 [2] is reported as over 300 µM and the EC50 [3] is reported as over 300 µM. The EC50 [4] was 16.5 µM, the EC50 [5] was 26.9 µM and the EC50 [6] was 2.28 µM.
